Source: US11648310B2, “Combination of anti-FGFR4-antibody and bile acid sequestrant” (Daiichi Sankyo Europe GmbH, priority 2015, dated 2023)

Legend:
cynomolgus monkeys [1] = settings: cynomolgus monkey, in vivo
Description: In order to find ort whether any toxic side effects of FGFR4 inhibition are due to elevated bile acid levels, the effect of co-administering agents which interfere with bile acid levels was examined. […] For reducing bile acid levels, the bile acid sequestrant colestyramine (Quantalan™) was used. Ursodeoxycholic acid (Ursofalk™) was used as a second compound for increasing the transport of bile acids out of the liver. Ursodeoxycholic acid is a hydrophilic bile acid that increases bile acid transporter expression and plasma membrane translocation in the liver, (palliative compounds 1 and 2). The study design included four cynomolgus monkeys (two male, two female) per group. The animals were assigned to the following groups [table] […] Duration and frequency: three administrations at 7-day interval (i.e. day 0, day 7 and day 14). The first day of dosing was designated as day 0. After the last administration, the animals were kept for a treatment-free period of at east 28 days. Method: intravenous injection (slow bolus) using a pump system and a microflex infusion set introduced into a vein after local disinfection with an aqueous solution of ethyl alcohol. After injection, the vein was flushed with sterile physiological saline. Volume administered: 9.52 mL/kg/day. Individual dose volumes were calculated using the latest body weight. Palliative Compounds and Vehicle Route: oral. Frequency: twice daily at 8 hours±1 hour apart. Duration: each day from day 0 to the last day of treatment-free period, i.e. at least 41 days of administrations. Method: naso-gastric intubation (animals are trained to this administration rotate five days before the start of treatment). […] Individual dose volumes were calculated using the latest body weight. […] FGF19 serum levels were determined using quantiquine human FGF19 ELISA from RND according to the manufacturer's instructions. RNA expression of cyno liver and ileum samples for Cyp7A1 (liver) and FGF19 (Ileum) were determined using the High-Capacity RNA-to-cDNA Kit (Applied Biosystems/Life Technologies) followed by subsequent quantitative real-time PCR.

cynomolgus monkeys [2] = settings: cynomolgus monkey, in vivo; remark: listed apart in the source
Description: In order to find ort whether any toxic side effects of FGFR4 inhibition are due to elevated bile acid levels, the effect of co-administering agents which interfere with bile acid levels was examined. […] For reducing bile acid levels, the bile acid sequestrant colestyramine (Quantalan™) was used. Ursodeoxycholic acid (Ursofalk™) was used as a second compound for increasing the transport of bile acids out of the liver. Ursodeoxycholic acid is a hydrophilic bile acid that increases bile acid transporter expression and plasma membrane translocation in the liver, (palliative compounds 1 and 2).
The study design included four cynomolgus monkeys (two male, two female) per group. The animals were assigned to the following groups
Duration and frequency: three administrations at 7-day interval (i.e. day 0, day 7 and day 14). The first day of dosing was designated as day 0. […]
The test animals were examined for clinical signs, liver enzymes, bile acid levels and FGF19. FGF19 serum levels were determined using quantiquine human FGF19 ELISA from RND according to the manufacturer's instructions. RNA expression of cyno liver and ileum samples for Cyp7A1 (liver) and FGF19 (Ileum) were determined using the High-Capacity RNA-to-cDNA Kit (Applied Biosystems/Life Technologies) followed by subsequent quantitative real-time PCR. […]

colestyramine [Quantalan™, reference compound]
Alanine aminotransferase activity (cynomolgus monkeys [1]): within the normal range | Bile acid concentration (cynomolgus monkeys [1]): within the normal range | Reversibility of the aspartate aminotransferase effect (cynomolgus monkeys [1]): reversible | Histopathological changes (cynomolgus monkeys [2]): no histopathological changes
